Data taken from patent US20160251342A1, “ALDEHYDE DERIVATIVE OF SUBSTITUTED OXAZOLIDINONES” (WANBURY LTD., priority 2012, published 2016).

Legend:
[1] = Stability in simulating intestinal fluid (SIF); format: physicochemical; details: SIF pH 7.4, up to 120 min
Experimental: On completion of incubation period, the solution is centrifuged and supernatant is taken. To the supernatant, ice cold acetonitrile containing IS is added, vortexed and injected into LCMS/MS.
(§1) API 4000, ESI Agilent 1100 column: Gemini Nx 100 mm×4.6 mm 5.μ; column temperature: 30° C.; eluent A: 0.1% formic acid in water, eluent B: acetonitrile; gradient: 0-2.5 min 95% A, 5% B; 2.5-2.6 min 5% A, 95% B; 2.6-4.2 min 95% A, 5% B; flow rate: 0.8 ml/min; ESI. Q1:464.098, Q3:144.255
SIF/SGF: 2.38 g of SIF original powder (biorelavant media) is dissolved in 1 L of milliQ water. The pH of the solution is adjusted for SIF (7.4) and SGF (2.2) with 0.1N HCl. The ratios of the peak areas (F) at the respective time points in relation to the peak areas at the starting time are calculated. […] The peak area (F) is directly correlated to the amount of test compound which is quantified by the LC MS method.
In simulating intestinal and gastric fluid, the area of the formula B compared with zero minute area to 120 min.

[2] = Anticoagulant activity (PT, APTT) in human plasma; format: biochemical; details: 0.1 to 1.0 μg/mL, PT and APTT
Experimental: The anticoagulant action of the test substance (compound formula-B) and rivaroxaban was determined in vitro using human plasma. The human plasma used for this experiment was separated from the blood collected in sodium citrate as anticoagulant. The prothrombin time (PT) was determined by using a commercial test kit (Neoplastin from Stagid) and APTT was determined using (Synthasil kit by IL). […] Coagulation was then started by addition of thromboplastin, and time when coagulation occurred was determined. The concentration of test substance which effected a doubling of prothrombin time was determined.

[3] = test system: plasma protein; experiment: Plasma protein binding (dialysis), rat; format: in vitro ADME
Experimental: A compound solution (1 mM in DMSO) (5 μL), according to the invention is added to the respective plasma matrices of rat or human or mouse (1 ml).
Add 150 μl of phosphate buffer to receiving side of the dialysis well. […] Precipitate with Acetonitrile and dilute samples prior to analysis in 1.5 ml polypropylene tubes. Remove 50 μl from the sample side of dialysis well and add 50 μl of phosphate buffer+300 μl of acetonitrile containing IS. Remove 50 μl from the buffer side of the dialysis well and add 50 μl of respective matrix plasma+300 μl of ACN. Then vortexed and centrifuged for 5 min, and supernatant is taken and injected into LCMS.
Different test concentration ranging from 0.1 μM to 20 μM are made in methanol:water (90:10). Test solutions are added to the premixed matrix containing plasma:phosphate buffer (50:50). Precipitate with 300 μl of ice cold acetonitrile containing IS, vortexes and centrifuged. Supernatant is taken and injected into LCMS.
Percentage of plasma protein binding was obtained via Equation (2): % Fraction unbound=(concentration on the buffer side/concentration on the sample side)*100

[4] = In vitro stability in human plasma (LC-MS); format: in vitro ADME
Experimental: The final concentration of the test compound in the assay is 5 micromolar. […] C. The 100 microlitres of aliquot at time point was removed and diluted with ice cold acetonitrile containing IS (200 µL) to stop the reactions. Samples are centrifuged at 10,000 RPM for 5 minutes to precipitate proteins. Supernatants are transferred to micro centrifuge tubes and stored at −20° C. for analysis of LC/MS/MS. The percent parent remaining of the test substance is calculated as ratio of peak area at each time point to peak area ratio at zero min, multiplied by 100.
as §1

SMILES: O=CN(C[C@H]1CN(c2ccc(N3CCOCC3=O)cc2)C(=O)O1)C(=O)c1ccc(Cl)s1 [compound formula (B), 5-chloro-N-formyl-N-({(5S)-2-oxo-3-[4-(3-oxomorpholin-4-yl)phenyl]-1,3-oxazolidin-5-yl}methyl)thiophene-2-carboxamide]
- Stability at simulating intestinal conditions [1]: stable
- Anticoagulant activity [2]: significant anticoagulant activity
- Observation: amount of test product [3]: Not quantificable amount of test
- Observation: formed Rivaroxaban bound to plasma protein ([3]; phrase continues 'High bound' in next line): Rivaroxaban found to be moderate-
- Amount of test product detected (conversion to rivaroxaban from zero min) [4]: Neglible
